According to patent publication US20190343908A1, “Therapeutic Combination for the Treatment of Cancer” (Nerium Biotechnology Inc., priority 2011, published 2019):

Columns and labels:
[1] = test system: PC3 (human prostate cancer); test: Methyl-Tetrazolium viability assay, PC3; format: cell-based; parameters: key: absorbance at 570 nm (optical density)
From the text: The Methyl-Tetrazolium dye assay measures the activity of enzymes in mitochondria. The dye precursor is taken up by cells, where it undergoes reduction to the purple formazan. It measures only the mitochondrial activity and, thus, it is not always a reliable indication of whether the cells themselves are alive or dead, since even a recently dead cell has […] enzyme activity in mitochondria. Intracellular glucose concentration, pH, and time before assay all affect the measurements.
(§1) The Methyl Tetrazolium, Sulforhodamine B, and Crystal Violet assays were used to assess cell viabilities. The incubation times were 24 hours, 48 hours, and 72 hours. The Nerium oleander extract Anvirzel™ (a hot water extract of oleander obtained from Salud Integral, Honduras) was tested in concentrations ranging from 0.01 ng/mL to 10 ng/mL.
(§2) Cells were detached by trypsinization (Trypsin-0.25% EDTA, Invitrogen, 25200-072) during the logarithmic phase of culture growth and plated in 96-well plates (18.000 cells/well) (Corning, Costar 359) in a final volume of 200 μl of medium per well. […] The absorbance was measured after 24 hours, 48 hours, and 72 hours of incubation.
For the Methyl-Tetrazolium assay, the dye (Sigma, M2128; 5 mg/mL, diluted in phosphate-buffered saline) was added to each well and plates were incubated for 3 hours at 37° C. After the end of the incubation period, the medium was discarded and the cells were rinsed with phosphate-buffered saline. Finally, the formazan crystals were dissolved in dimethylsulphoxide (Sigma, D4540).
(§3) The optical density of each plate was measured on a μQuant spectrophotometer and the data were analyzed with Gen5 software (μQuant Biomolecular Spectrophotometer MQX200 and Gen5™ Microplate Data Collection & Analysis software, BioTek® Instruments. Inc, April 2008). Absorbance was measured at 570 nm for all assays and a second wavelength was measured in order to subtract noise. For the Methyl-Tetrazolium assay this second wavelength was 630 nm and for the Sulforhodamine B and Crystal Violet assays it was 690 nm.

[2] = test system: MCF-7 (human breast cancer); test: Crystal Violet viability assay, MCF-7; format: cell-based; parameters: key: absorbance at 570 nm (second wavelength subtracted)
From the text: The Sulforhodamine B and Crystal Violet assays provide information about protein and were used to complement the Methyl-Tetrazolium dye assay. […] It is used for the quantification of cellular proteins of cultured cells. The assay using Crystal Violet, a dye that binds electrostatically to proteins and stains DNA, provides a reliable, simple assay for measuring viability of cells.
as §1, §2
[…] Formalin was removed and 0.25% aqueous crystal violet (Sigma, HT901), dissolved in water, was added for 10 minutes at RT. Unbound Crystal Violet was rinsed by washing with water and finally 33% acetic acid was added to dissolve the dye.
as §3

**Q.** What does the source list for `N.N.[Cl][Pt][Cl]` [cisplatin]?
**A.** MTT Average ([1]; PC3 Run 1, 24 h, 0.1 μg/ml CDDP): 0.137; MTT Average ([1]; PC3 Run 1, 24 h, 1 μg/ml CDDP): 0.049; MTT Average ([1]; PC3 Run 1, 24 h, 10 μg/ml CDDP): 0.091; MTT Average ([1]; PC3 Run 1, 24 h, 100 μg/ml CDDP): 0.053; MTT Average ([1]; PC3 Run 1, 48 h, 0.1 μg/ml CDDP): 0.162; MTT Average ([1]; PC3 Run 1, 48 h, 1 μg/ml CDDP): 0.027; MTT Average ([1]; PC3 Run 1, 48 h, 10 μg/ml CDDP): 0.064; MTT Average ([1]; PC3 Run 1, 48 h, 100 μg/ml CDDP): 0.029; MTT Average ([1]; PC3 Run 1, 72 h, 0.1 μg/ml CDDP): 0.188; MTT Average ([1]; PC3 Run 1, 72 h, 1 μg/ml CDDP): 0.034; MTT Average ([1]; PC3 Run 1, 72 h, 10 μg/ml CDDP): 0.044; MTT Average ([1]; PC3 Run 1, 72 h, 100 μg/ml CDDP): 0.029; MTT Average ([1]; PC3 Run 2, 24 h, 0.1 μg/ml CDDP): 0.072; MTT Average ([1]; PC3 Run 2, 24 h, 1 μg/ml CDDP): 0.04; MTT Average ([1]; PC3 Run 2, 24 h, 10 μg/ml CDDP): 0.079; MTT Average ([1]; PC3 Run 2, 24 h, 100 μg/ml CDDP): 0.052; MTT Average ([1]; PC3 Run 2, 48 h, 0.1 μg/ml CDDP): 0.195; MTT Average ([1]; PC3 Run 2, 48 h, 1 μg/ml CDDP): 0.051; MTT Average ([1]; PC3 Run 2, 48 h, 10 μg/ml CDDP): 0.074; MTT Average ([1]; PC3 Run 2, 48 h, 100 μg/ml CDDP): 0.047; MTT Average ([1]; PC3 Run 2, 72 h, 0.1 μg/ml CDDP): 0.223; MTT Average ([1]; PC3 Run 2, 72 h, 1 μg/ml CDDP): 0.039; MTT Average ([1]; PC3 Run 2, 72 h, 10 μg/ml CDDP): 0.068; MTT Average ([1]; PC3 Run 2, 72 h, 100 μg/ml CDDP): 0.037; MTT Average ([1]; PC3 Run 3, 24 h, 0.1 μg/ml CDDP): 0.088; MTT Average ([1]; PC3 Run 3, 24 h, 1 μg/ml CDDP): 0.041; MTT Average ([1]; PC3 Run 3, 24 h, 10 μg/ml CDDP): 0.096; MTT Average ([1]; PC3 Run 3, 24 h, 100 μg/ml CDDP): 0.053; MTT Average ([1]; PC3 Run 3, 48 h, 1 μg/ml CDDP): 0.033; MTT Average ([1]; PC3 Run 3, 48 h, 10 μg/ml CDDP): 0.062; MTT Average ([1]; PC3 Run 3, 48 h, 100 μg/ml CDDP): 0.03; MTT Average ([1]; PC3 Run 3, 72 h, 0.1 μg/ml CDDP): 0.151; MTT Average ([1]; PC3 Run 3, 72 h, 1 μg/ml CDDP): 0.027; MTT Average ([1]; PC3 Run 3, 72 h, 10 μg/ml CDDP): 0.057; MTT Average ([1]; PC3 Run 3, 72 h, 100 μg/ml CDDP): 0.028; CVE Average ([2]; MCF-7, Run 2, 24 h, 0.1 μg/ml CDDP): 0.71; CVE Average ([2]; MCF-7, Run 2, 24 h, 1 μg/ml CDDP): 0.192; CVE Average ([2]; MCF-7, Run 2, 24 h, 10 μg/ml CDDP): 0.612; CVE Average ([2]; MCF-7, Run 2, 24 h, 100 μg/ml CDDP): 0.288; CVE Average ([2]; MCF-7, Run 2, 48 h, 0.1 μg/ml CDDP): 0.664; CVE Average ([2]; MCF-7, Run 2, 48 h, 1 μg/ml CDDP): 0.239; CVE Average ([2]; MCF-7, Run 2, 48 h, 10 μg/ml CDDP): 0.24; CVE Average ([2]; MCF-7, Run 2, 48 h, 100 μg/ml CDDP): 0.221; CVE Average ([2]; MCF-7, Run 2, 72 h, 0.1 μg/ml CDDP): 0.678; CVE Average ([2]; MCF-7, Run 2, 72 h, 1 μg/ml CDDP): 0.151; CVE Average ([2]; MCF-7, Run 2, 72 h, 100 μg/ml CDDP): 0.147; CVE Average ([2]; MCF-7, Run 3, 24 h, 0.1 μg/ml CDDP): 0.454; CVE Average ([2]; MCF-7, Run 3, 24 h, 1 μg/ml CDDP): 0.183; CVE Average ([2]; MCF-7, Run 3, 24 h, 10 μg/ml CDDP): 0.307; CVE Average ([2]; MCF-7, Run 3, 48 h, 0.1 μg/ml CDDP): 0.811; CVE Average ([2]; MCF-7, Run 3, 48 h, 1 μg/ml CDDP): 0.871; CVE Average ([2]; MCF-7, Run 3, 48 h, 10 μg/ml CDDP): 0.769; CVE Average ([2]; MCF-7, Run 3, 48 h, 100 μg/ml CDDP): 0.439; CVE Average ([2]; MCF-7, Run 3, 72 h, 0.1 μg/ml CDDP): 1.312; CVE Average ([2]; MCF-7, Run 3, 72 h, 1 μg/ml CDDP): 0.51; CVE Average ([2]; MCF-7, Run 3, 72 h, 10 μg/ml CDDP): 0.449; CVE Average ([2]; MCF-7, Run 3, 72 h, 100 μg/ml CDDP): 0.253; CVE Average ([2]; MCF-7 Run 1, 24 h, 0.1 μg/ml CDDP): 0.978; CVE Average ([2]; MCF-7 Run 1, 24 h, 1 μg/ml CDDP): 0.376; CVE Average ([2]; MCF-7 Run 1, 24 h, 10 μg/ml CDDP): 0.468; CVE Average ([2]; MCF-7 Run 1, 24 h, 100 μg/ml CDDP): 0.285; CVE Average ([2]; MCF-7 Run 1, 48 h, 0.1 μg/ml CDDP): 1.112; CVE Average ([2]; MCF-7 Run 1, 48 h, 10 μg/ml CDDP): 0.303; CVE Average ([2]; MCF-7 Run 1, 48 h, 100 μg/ml CDDP): 0.153; CVE Average ([2]; MCF-7 Run 1, 72 h, 0.1 μg/ml CDDP): 1.632; CVE Average ([2]; MCF-7 Run 1, 72 h, 1 μg/ml CDDP): 0.325; CVE Average ([2]; MCF-7 Run 1, 72 h, 10 μg/ml CDDP): 0.237; CVE Average ([2]; MCF-7 Run 1, 72 h, 100 μg/ml CDDP): 0.284
